The supplement of paper PMC11208160

Assay: recombinant barcode read abundance after kanamycin selection (control-corrected) (log10(CPM+1)); higher = more efficient recombination; sequences stand for … in AGTGCAGAGAAAATCGGCCAGTTTTCTCTGCCTGCAGTCCGCATGCCGT…AGATTTATGCAGCGGACTGCCTTTCTCCCAAAGTGATAAACCGGACAGTATCATGGACCGGTTTTCCCGGTAATCCGTATTTGCAAGGTTGGTTTCACT; site = the 11-nt target
Summary of the method: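 Recombination efficiency was calculated from barcode counts at recombinant junctions, normalized to counts per million, averaged and corrected by the control. Each value is given as log10(CPM+1). The constructs were Gibson-cloned oligos (promoter, target, barcode, J23119-driven first 104 bridge RNA bases) in a vector with the remaining 73 bp and a T7-inducible recombinase, co-electroporated into E. coli with a donor plasmid and plated in duplicate on chloramphenicol/ampicillin LB agar (control) or chloramphenicol/ampicillin/kanamycin with 0.1 mM IPTG.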
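Also: IS621 recombinase and bridge RNA in Escherichia coli cells.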

| Sequence | recombinant barcode read abundance (log10) |
| --- | --- |
| TAGAGAGCTTGGGTTCTAACCTGTTGCGG (site TATAGAGCTCC) | 0.356 |
| TAGAGCTCTTGGGTTCTAACCTGTTGCTG (site TAGAGCTCTCA) | 0.75 |
| TAGAGCTCTTGGGTTCTAACCTGTTGCTG (site TAGTGCTCTGA) | 0.0075 |
| TAGATAACTTGGGTTCTAACCTGTTGCTG (site ACCCATTCTAC) | 0 |
| TAGATAACTTGGGTTCTAACCTGTTGCTG (site TAGATAACTCA) | 1.02 |
| TAGCACTCTTGGGTTCTAACCTGTTGCAG (site AAGCACCCTCT) | 0.0429 |
| TAGCACTCTTGGGTTCTAACCTGTTGCAG (site TAGCACTCTCT) | 2.08 |
| TAGCATACTTGGGTTCTAACCTGTTGCCC (site TAGCATACTAG) | 0.329 |
| TAGCATACTTGGGTTCTAACCTGTTGCCC (site TAGCATACTCG) | 0.266 |
| TAGCATACTTGGGTTCTAACCTGTTGCCC (site TAGCATACTGG) | 0.941 |
| TAGCATACTTGGGTTCTAACCTGTTGCCC (site TAGCATACTTG) | 0.187 |
| TAGCATGCTTGGGTTCTAACCTGTTGCAG (site TAGCATGCTAT) | 0.0261 |
| TAGCATGCTTGGGTTCTAACCTGTTGCAG (site TAGCATGCTCT) | 1.44 |
| TAGCATGCTTGGGTTCTAACCTGTTGCAG (site TAGCATGCTGT) | 0.0603 |
| TAGCATGCTTGGGTTCTAACCTGTTGCAG (site TAGCATGCTTT) | 0.017 |
| TAGCATGCTTGGGTTCTAACCTGTTGCAT (site TAGCATGCTAT) | 0.434 |
| TAGCATGCTTGGGTTCTAACCTGTTGCAT (site TAGCATGCTCT) | 0.204 |
| TAGCATGCTTGGGTTCTAACCTGTTGCAT (site TAGCATGCTGT) | 0.228 |
| TAGCATGCTTGGGTTCTAACCTGTTGCAT (site TAGCATGCTTT) | 0.065 |
| TAGCCATCTTGGGTTCTAACCTGTTGCTC (site TAGACATCTGA) | 0.0329 |
| TAGCCATCTTGGGTTCTAACCTGTTGCTC (site TAGCCATCTGA) | 0.508 |
| TAGCCATCTTGGGTTCTAACCTGTTGCTC (site TAGGCATCTGA) | 0.404 |

| Sequence | recombinant barcode read abundance (log10) |
| --- | --- |
| TAGCCATCTTGGGTTCTAACCTGTTGCTC (site TAGTCATCTGA) | 0 |
| TAGCCTACTTGGGTTCTAACCTGTTGCGG (site TAGCCTACTAC) | 0.0228 |
| TAGCCTACTTGGGTTCTAACCTGTTGCGG (site TAGCCTACTCC) | 1.41 |
| TAGCCTACTTGGGTTCTAACCTGTTGCGG (site TAGCCTACTGC) | 0.0519 |
| TAGCCTACTTGGGTTCTAACCTGTTGCGG (site TAGCCTACTTC) | 0.00783 |
| TAGCCTGCTTGGGTTCTAACCTGTTGCCT (site TAGACTGCTAG) | 0.0305 |
| TAGCCTGCTTGGGTTCTAACCTGTTGCCT (site TAGCCTGCTAG) | 1.35 |
| TAGCCTGCTTGGGTTCTAACCTGTTGCCT (site TAGGCTGCTAG) | 0.026 |
| TAGCCTGCTTGGGTTCTAACCTGTTGCCT (site TAGTCTGCTAG) | 0.177 |
| TAGCGCACTTGGGTTCTAACCTGTTGCGG (site TAGCACACTCC) | 0.28 |
| TAGCGCACTTGGGTTCTAACCTGTTGCGG (site TAGCCCACTCC) | 0.076 |
| TAGCGCACTTGGGTTCTAACCTGTTGCGG (site TAGCGCACTCC) | 1.33 |
| TAGCGCACTTGGGTTCTAACCTGTTGCGG (site TAGCTCACTCC) | 0.13 |
| TAGCGGCCTTGGGTTCTAACCTGTTGCCT (site TAACGGCCTAG) | 0.651 |
| TAGCGGCCTTGGGTTCTAACCTGTTGCCT (site TACCGGCCTAG) | 0.0223 |
| TAGCGGCCTTGGGTTCTAACCTGTTGCCT (site TAGCGGCCTAG) | 0.428 |
| TAGCGGCCTTGGGTTCTAACCTGTTGCCT (site TATCGGCCTAG) | 0.0926 |
| TAGCGTACTTGGGTTCTAACCTGTTGCGT (site TAGCGTACTAC) | 0.805 |
| TAGCGTACTTGGGTTCTAACCTGTTGCGT (site TAGCGTACTCC) | 0.0572 |
| TAGCTCCCTTGGGTTCTAACCTGTTGCCC (site TAGCTCCCTAG) | 0.279 |
| TAGCTCCCTTGGGTTCTAACCTGTTGCCC (site TAGCTCCCTCG) | 0.115 |
